Patent publication US10988478B1, “Pyrazolo[1,5a]pyrimidine derivatives as IRAK4 modulators” (Genentech, Inc., priority 2015, dated 2021)

What follows are compounds tested against human IRAK4 (Homo sapiens (Human), UniProt Q9NWZ3) (assay: IRAK4 kinase inhibition, Transcreener fluorescence polarization ADP assay). Details: recombinant full-length His6-IRAK4; 125 uM ATP; 90 min; Ki computed using ATP Km 642 uM.
human IRAK4, sequence (Q9NWZ3 whole entry): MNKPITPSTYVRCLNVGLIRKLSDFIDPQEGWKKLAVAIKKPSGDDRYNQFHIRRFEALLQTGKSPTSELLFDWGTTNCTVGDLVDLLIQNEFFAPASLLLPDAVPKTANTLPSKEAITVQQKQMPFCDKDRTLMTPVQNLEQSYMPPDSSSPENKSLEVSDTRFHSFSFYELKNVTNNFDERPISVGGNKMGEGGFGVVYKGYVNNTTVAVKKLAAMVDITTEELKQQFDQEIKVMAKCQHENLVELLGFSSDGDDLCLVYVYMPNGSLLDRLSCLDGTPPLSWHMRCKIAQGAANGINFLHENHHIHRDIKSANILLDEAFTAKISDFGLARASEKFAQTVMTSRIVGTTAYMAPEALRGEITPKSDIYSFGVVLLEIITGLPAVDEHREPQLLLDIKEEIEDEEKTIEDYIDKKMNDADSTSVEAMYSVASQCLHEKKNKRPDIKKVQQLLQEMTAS
Type: biochemical
Protocol: Compounds were assayed for inhibition of human IRAK4 and IRAK1 catalytic activity using recombinant enzyme produced from insect cells. Full-length IRAK4 protein, carrying an N-terminal His6-Tag, was obtained from Life Technologies (Carlsbad, Calif., USA). The IRAK1 construct was produced internally and was comprised of IRAK1 residues Arg194 to Ser712, preceded by an NH2-terminal His6 tag and the coding sequence for glutathione-S-transferase.
In the case of `C[C@]1(O)COc2cc(N3CCN(CC(F)F)CC3)c(NC(=O)c3cnn4cccnc34)cc2C1` [Example 510, (R)—N-(7-(4-(2,2-difluoroethyl)piperazin-1-yl)-3-hydroxy-3-methylchroman-6-yl)pyrazolo[1,5-a]pyrimidine-3-carboxamide], the Ki is reported as 44 nM.
`CC1(C)Cc2cc(NC(=O)c3cnn4ccc(C[C@@H]5CNC(=O)C5)nc34)c(C3CC3)cc2O1` [Example 512, (S)—N-(6-Cyclopropyl-2,2-dimethyl-2,3-dihydrobenzofuran-5-yl)-5-((5-oxopyrrolidin-3-yl)methyl)pyrazolo[1,5-a]pyrimidine-3-carboxamide] gave a Ki of 150 nM.
With `CC1(C)Cc2cc(NC(=O)c3cnn4ccc(C[C@H]5CNC(=O)C5)nc34)c(C3CC3)cc2O1` [Example 513, (R)—N-(6-cyclopropyl-2,2-dimethyl-2,3-dihydrobenzofuran-5-yl)-5-((5-oxopyrrolidin-3-yl)methyl)pyrazolo[1,5-a]pyrimidine-3-carboxamide] the Ki was 210 nM.
With `CC1(C)Cc2cc(NC(=O)c3cnn4ccc(C[C@H]5CCNC5=O)nc34)c(C3CC3)cc2O1` [Example 514, (R)—N-(6-cyclopropyl-2,2-dimethyl-2,3-dihydrobenzofuran-5-yl)-5-((2-oxopyrrolidin-3-yl)methyl)pyrazolo[1,5-a]pyrimidine-3-carboxamide] the Ki was 810 nM.
Compound `CC1(C)Cc2cc(NC(=O)c3cnn4ccc(C[C@@H]5CCNC5=O)nc34)c(C3CC3)cc2O1` [Example 515, (S)—N-(6-cyclopropyl-2,2-dimethyl-2,3-dihydrobenzofuran-5-yl)-5-((2-oxopyrrolidin-3-yl)methyl)pyrazolo[1,5-a]pyrimidine-3-carboxamide] has a Ki of 420 nM.
Work on `CP(C)(=O)c1ccc(NC(=O)c2cnn3cccnc23)c(N2CCOCC2)c1` [Example 518, N-(4-dimethylphosphoryl-2-morpholino-phenyl)pyrazolo[1,5-a]pyrimidine-3-carboxamide] yielded a Ki of 130 nM.
For `C[C@@]1(CC#N)COc2cc(N3CCOCC3)c(NC(=O)c3cnn4cccnc34)cc2C1` [Example 519, N-[(3R)-3-(cyanomethyl)-3-methyl-7-morpholino-chroman-6-yl]pyrazolo[1,5-a]pyrimidine-3-carboxamide], the Ki was 39 nM.
`C[C@]1(CC#N)COc2cc(N3CCOCC3)c(NC(=O)c3cnn4cccnc34)cc2C1` [Example 520, N-[(3S)-3-(cyanomethyl)-3-methyl-7-morpholino-chroman-6-yl]pyrazolo[1,5-a]pyrimidine-3-carboxamide] gave a Ki of 1.1 nM.
Work on `CC(C)(O)[C@H](F)CN1Cc2cc(NC(=O)c3cnn4cccnc34)c(Cl)cc2C1=O` [Example 521, N-[6-chloro-2-[(2R)-2-fluoro-3-hydroxy-3-methyl-butyl]-1-oxo-isoindolin-5-yl]pyrazolo[1,5-a]pyrimidine-3-carboxamide] yielded a Ki of 4 nM.
With `CC(C)(O)[C@@]1(C)Cc2cc(NC(=O)c3cnn4cccnc34)c(N3CCN(Cc4c[nH]cn4)CC3)cc2O1` [Example 522, N-[(2R)-2-(1-Hydroxy-1-methyl-ethyl)-6-[4-(1H-imidazol-4-ylmethyl)piperazin-1-yl]-2-methyl-3H-benzofuran-5-yl]pyrazolo[1,5-a]pyrimidine-3-carboxamide] the Ki was 3.4 nM.
With `CC(C)(O)[C@]1(C)Cc2cc(NC(=O)c3cnn4cccnc34)c(N3CCN(Cc4c[nH]cn4)CC3)cc2O1` [Example 523, N-[(2S)-2-(1-hydroxy-1-methyl-ethyl)-6-[4-(1H-imidazol-4-ylmethyl)piperazin-1-yl]-2-methyl-3H-benzofuran-5-yl]pyrazolo[1,5-a]pyrimidine-3-carboxamide] the Ki was 4.4 nM.
Compound `CC(C)(O)[C@]1(C)Cc2cc(NC(=O)c3cnn4cccnc34)c(N3CCN(CC(N)=O)CC3)cc2O1` [Example 524, N-[(2S)-6-[4-(2-amino-2-oxo-ethyl)piperazin-1-yl]-2-(1-hydroxy-1-methyl-ethyl)-2-methyl-3H-benzofuran-5-yl]pyrazolo[1,5-a]pyrimidine-3-carboxamide] has a Ki of 4.1 nM.
Work on `CC(C)(O)[C@@]1(C)Cc2cc(NC(=O)c3cnn4cccnc34)c(N3CCN(CC(N)=O)CC3)cc2O1` [Example 525, N-[(2R)-6-[4-(2-amino-2-oxo-ethyl)piperazin-1-yl]-2-(1-hydroxy-1-methyl-ethyl)-2-methyl-3H-benzofuran-5-yl]pyrazolo[1,5-a]pyrimidine-3-carboxamide] yielded a Ki of 4.2 nM.
Compound `CC1(C)Cc2cc(NC(=O)c3cnn4cccnc34)c(N3CCC(C(N)=O)CC3)cc2O1` [Example 531, N-[6-(4-carbamoyl-1-piperidyl)-2,2-dimethyl-3H-benzofuran-5-yl]pyrazolo[1,5-a]pyrimidine-3-carboxamide] has a Ki of 3.2 nM.
With `CN(C)C1CCN(c2cc3c(cc2NC(=O)c2cnn4cccnc24)CC(C)(C)O3)CC1` [Example 532, N-[6-[4-(dimethylamino)-1-piperidyl]-2,2-dimethyl-3H-benzofuran-5-yl]pyrazolo[1,5-a]pyrimidine-3-carboxamide] the Ki was 7.2 nM.
`CC1(C)Cc2cc(NC(=O)c3cnn4cccnc34)c(N3CCNCC3)cc2O1` [Example 533, N-(2,2-dimethyl-6-piperazin-1-yl-3H-benzofuran-5-yl)pyrazolo[1,5-a]pyrimidine-3-carboxamide] was tested, and the Ki was 13 nM.
Work on `CC1(C)Cc2cc(NC(=O)c3cnn4cccnc34)c(N3CCC(F)(C(N)=O)CC3)cc2O1` [Example 534, N-[6-(4-carbamoyl-4-fluoro-1-piperidyl)-2,2-dimethyl-3H-benzofuran-5-yl]pyrazolo[1,5-a]pyrimidine-3-carboxamide] yielded a Ki of 2 nM.
In the case of `CC1(CC(N)=O)CCN(c2cc3c(cc2NC(=O)c2cnn4cccnc24)CC(C)(C)O3)CC1` [Example 535, N-[6-[4-(2-Amino-2-oxo-ethyl)-4-methyl-1-piperidyl]-2,2-dimethyl-3H-benzofuran-5-yl]pyrazolo[1,5-a]pyrimidine-3-carboxamide], the Ki is reported as 3.1 nM.
Compound `CC1(C)Cc2cc(NC(=O)c3cnn4cccnc34)c(N3CCC(O)(CC(N)=O)CC3)cc2O1` [Example 536, N-[6-[4-(2-amino-2-oxo-ethyl)-4-hydroxy-1-piperidyl]-2,2-dimethyl-3H-benzofuran-5-yl]pyrazolo[1,5-a]pyrimidine-3-carboxamide] has a Ki of 3.1 nM.
For `CN(C)c1cc2c(cc1NC(=O)c1cnn3cccnc13)CC(C)(C)O2` [Example 537, N-(6-(dimethylamino)-2,2-dimethyl-2,3-dihydrobenzofuran-5-yl)pyrazolo[1,5-a]pyrimidine-3-carboxamide], the Ki was 12 nM.
In the case of `Cn1cnc(COc2cc3c(cc2NC(=O)c2cnn4cccnc24)CC(C)(C)O3)c1` [Example 538, N-(2,2-dimethyl-6-((1-methyl-1H-imidazol-4-yl)methoxy)-2,3-dihydrobenzofuran-5-yl)pyrazolo[1,5-a]pyrimidine-3-carboxamide], the Ki is reported as 220 nM.
For `CC1(C)Cc2cc(NC(=O)c3cnn4cccnc34)c(OCc3c[nH]cn3)cc2O1` [Example 539, N-[6-(1H-Imidazol-4-ylmethoxy)-2,2-dimethyl-3H-benzofuran-5-yl]pyrazolo[1,5-a]pyrimidine-3-carboxamide], the Ki was 33 nM.
In the case of `CC1(C)Cc2cc(NC(=O)c3cnn4cccnc34)c(OC[C@H]3CCC(=O)N3)cc2O1` [Example 540, N-[2,2-dimethyl-6-[[(2R)-5-oxopyrrolidin-2-yl]methoxy]-3H-benzofuran-5-yl]pyrazolo[1,5-a]pyrimidine-3-carboxamide], the Ki is reported as 74 nM.
`CC1(C)Cc2cc(NC(=O)c3cnn4cccnc34)c(OC[C@@H]3CCC(=O)N3)cc2O1` [Example 541, N-[2,2-dimethyl-6-[[(2S)-5-oxopyrrolidin-2-yl]methoxy]-3H-benzofuran-5-yl]pyrazolo[1,5-a]pyrimidine-3-carboxamide] gave a Ki of 190 nM.
Work on `Cc1cc(COc2cc3c(cc2NC(=O)c2cnn4cccnc24)CC(C)(C)O3)n[nH]1` [Example 542, N-[2,2-Dimethyl-6-[(5-methyl-1H-pyrazol-3-yl)methoxy]-3H-benzofuran-5-yl]pyrazolo[1,5-a]pyrimidine-3-carboxamide] yielded a Ki of 59 nM.
Work on `CC(C)(O)[C@H]1CC[C@@H](N2Cc3cc(NC(=O)c4cnn5cccnc45)c(N4CCOCC4)cc3C2=O)CC1` [Example 547, Cis-N-[2-[4-(1-Hydroxy-1-methyl-ethyl)cyclohexyl]-6-morpholino-1-oxo-isoindolin-5-yl]pyrazolo[1,5-a]pyrimidine-3-carboxamide] yielded a Ki of 38 nM.
For `CC(C)(O)[C@H]1CC[C@H](N2Cc3cc(NC(=O)c4cnn5cccnc45)c(N4CCOCC4)cc3C2=O)CC1` [Example 548, trans-N-[2-[4-(1-Hydroxy-1-methyl-ethyl)cyclohexyl]-6-morpholino-1-oxo-isoindolin-5-yl]pyrazolo[1,5-a]pyrimidine-3-carboxamide], the Ki was 2.9 nM.
`C[C@@H](CN1Cc2cc(NC(=O)c3cnn4cccnc34)c(N3CCOCC3)cc2C1=O)N1CCOCC1` [Example 551, N-[6-morpholino-2-[(2S)-2-morpholinopropyl]-1-oxo-isoindolin-5-yl]pyrazolo[1,5-a]pyrimidine-3-carboxamide] showed a Ki of 2.9 nM.
`C[C@H](CN1Cc2cc(NC(=O)c3cnn4cccnc34)c(N3CCOCC3)cc2C1=O)N1CCOCC1` [Example 552, N-[6-morpholino-2-[(2R)-2-morpholinopropyl]-1-oxo-isoindolin-5-yl]pyrazolo[1,5-a]pyrimidine-3-carboxamide] was tested, and the Ki was 12 nM.
With `CN1CC[C@@H](N2Cc3cc(NC(=O)c4cnn5cccnc45)c(N4CCOCC4)cc3C2=O)C1=O` [Example 553, N-[2-[(3R)-1-methyl-2-oxo-pyrrolidin-3-yl]-6-morpholino-1-oxo-isoindolin-5-yl]pyrazolo[1,5-a]pyrimidine-3-carboxamide] the Ki was 58 nM.
`CN1CC[C@H](N2Cc3cc(NC(=O)c4cnn5cccnc45)c(N4CCOCC4)cc3C2=O)C1=O` [Example 554, N-[2-[(3S)-1-methyl-2-oxo-pyrrolidin-3-yl]-6-morpholino-1-oxo-isoindolin-5-yl]pyrazolo[1,5-a]pyrimidine-3-carboxamide] gave a Ki of 14 nM.
